The values that follow are results of earlier work, collected in patent US11071785B2, “Liquid formulation of long-lasting protein conjugate comprising the oxyntomodulin and an immunoglobulin Fc region” (HANMI PHARM, CO., LTD, priority 2012, dated 2021).

The conditions of data set [1]: when administered for 1 year.
The conditions of data set [2]: in vivo.

In the case of `CCCCCCCCCCC[C@@H](C[C@@H]1OC(=O)[C@H]1CCCCCC)OC(=O)[C@H](CC(C)C)NC=O` [Orlistat], the weight reduction effect result in data set [1] is listed as “about 4 kg”.

Consider `Cc1c(C(=O)NN2CCCCC2)nn(-c2ccc(Cl)cc2Cl)c1-c1ccc(Cl)cc1` [Rimonabant], for which the side effects reported result in data set [2] is “disorders of the central nervous system”.

Turning to `CC(C)CC(N(C)C)C1(c2ccc(Cl)cc2)CCC1` (stereo not shown) [Sibutramine], the side effects reported entry in data set [2] was “cardiovascular side effects”.

Contrave: the side effects reported result in data set [2] is “cardiovascular side effects”.
